The record followed here is ChEMBL document CHEMBL1159077, “Discovery and SAR of substituted 3-oxoisoindoline-4-carboxamides as potent inhibitors of poly(ADP-ribose) polymerase (PARP) for the treatment of cancer” (Bioorg Med Chem Lett, 2010).

For assay [1], the target named is T1, Poly [ADP-ribose] polymerase 1 (Homo sapiens, UniProt P09874). Description: Inhibition of PARP1 by microplate scintillation counting.
For assay [2], the target named is T1, Poly [ADP-ribose] polymerase 1. Description: Inhibition of PARP1 in human C41 cells. Type of assay: cell-based.

T1 sequence (P09874 whole entry): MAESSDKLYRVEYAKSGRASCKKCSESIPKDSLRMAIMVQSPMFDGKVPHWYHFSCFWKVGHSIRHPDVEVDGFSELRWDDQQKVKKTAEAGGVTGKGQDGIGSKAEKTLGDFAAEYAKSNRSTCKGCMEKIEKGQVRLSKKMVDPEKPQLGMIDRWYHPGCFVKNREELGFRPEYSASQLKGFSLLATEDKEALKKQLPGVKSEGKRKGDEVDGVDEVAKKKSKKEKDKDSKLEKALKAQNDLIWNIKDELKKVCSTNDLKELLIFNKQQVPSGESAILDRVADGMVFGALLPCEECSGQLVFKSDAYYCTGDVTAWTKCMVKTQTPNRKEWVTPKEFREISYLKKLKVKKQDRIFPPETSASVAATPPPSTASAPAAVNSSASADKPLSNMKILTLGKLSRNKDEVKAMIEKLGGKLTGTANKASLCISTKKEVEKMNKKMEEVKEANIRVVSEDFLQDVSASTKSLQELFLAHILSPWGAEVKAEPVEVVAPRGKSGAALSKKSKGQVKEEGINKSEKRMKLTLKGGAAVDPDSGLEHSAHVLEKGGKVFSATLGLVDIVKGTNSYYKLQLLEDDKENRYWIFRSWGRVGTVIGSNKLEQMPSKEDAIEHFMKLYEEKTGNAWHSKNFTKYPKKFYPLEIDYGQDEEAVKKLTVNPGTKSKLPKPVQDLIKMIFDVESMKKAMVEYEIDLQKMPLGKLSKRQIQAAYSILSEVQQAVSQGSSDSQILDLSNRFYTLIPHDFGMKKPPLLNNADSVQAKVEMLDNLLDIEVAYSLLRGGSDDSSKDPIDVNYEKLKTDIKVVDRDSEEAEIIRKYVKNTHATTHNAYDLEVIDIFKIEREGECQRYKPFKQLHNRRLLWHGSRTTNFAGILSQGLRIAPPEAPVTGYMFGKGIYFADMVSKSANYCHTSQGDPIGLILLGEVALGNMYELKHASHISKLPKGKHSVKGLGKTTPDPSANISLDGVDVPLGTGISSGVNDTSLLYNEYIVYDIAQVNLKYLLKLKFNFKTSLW

As a reminder, the Ki is the equilibrium dissociation constant of an inhibitor or competing ligand from its target. A low value points to a stronger hold on the target. The compound `Cc1cccc(N2Cc3cccc(C(N)=O)c3C2=O)c1` had a Ki in assay [1] of 261 nM.

`NC(=O)c1cccc2c1C(=O)N(Cc1cccnc1)C2`: the inhibition constant Ki in assay [1] was > 9500 nM.

For orientation: EC50 means the concentration giving half of the maximal effect. Higher therefore signals lower potency in that assay. Turning to `NC(=O)c1cccc2c1C(=O)N(CC1CCCN1)C2` (stereo unspecified), the EC50 in assay [2] came to 374 nM. For the same compound, the Ki in assay [1] came to 377 nM.

As for `NC(=O)c1cccc2c1C(=O)N(c1ccc(CN3CCCC3)cc1)C2`, in assay [2], the EC50 stood at 53 nM. For the same compound, the Ki in assay [1] was found to be 53 nM.

In turn, `NC(=O)c1cccc2c1C(=O)N(c1cccc(CN3CCCC3)c1)C2` registered a Ki in assay [1] of 391 nM.

Compound `NC(=O)c1cccc2c1C(=O)N(c1cccc(C3CCNCC3)c1)C2` had an inhibitory constant (Ki) in assay [1] of 314 nM.

As to `NC(=O)c1cccc2c1C(=O)N(C1CCCCC1)C2`, the EC50 in assay [2] is > 1000 nM. In assay [1], this compound registered a Ki of 172 nM.

As to `NC(=O)c1cccc2c1C(=O)N(C1CCNC1)C2` (stereo unspecified), the EC50 in assay [2] came out at 160 nM. The compound further displayed a Ki in assay [1] of 59 nM.

Compound `NC(=O)c1cccc2c1C(=O)N(C1CCNCC1)C2` displayed an EC50 in assay [2] of 51 nM. In assay [1], this compound registered a Ki of 33 nM.

In assay [1], `NC(=O)c1cccc2c1C(=O)N(C1CCCNC1)C2` (stereo unspecified) came in with a Ki of 140 nM.

In assay [1], `NC(=O)c1cccc2c1C(=O)N(CC1CCNCC1)C2` had an inhibitory constant (Ki) of 384 nM.

In turn, `NC(=O)c1cccc2c1C(=O)N(CC1CCCNC1)C2` (stereo unspecified) showed a Ki in assay [1] of 164 nM.

On to `CN1CCN(c2ccc(N3Cc4cccc(C(N)=O)c4C3=O)cc2)CC1`, for which the EC50 in assay [2] worked out at 22 nM. This compound also came in with a Ki in assay [1] of 48 nM.

In assay [2], `NC(=O)c1cccc2c1C(=O)N(c1ccc(C3CCNCC3)cc1)C2` had an EC50 of 120 nM. For the same compound, the affinity in assay [1] corresponds to a Ki of 32 nM.

Turning to `CC(C)CN1Cc2cccc(C(N)=O)c2C1=O`, in assay [2], the half-maximal effective concentration (EC50) is > 1000 nM. This compound gave a Ki in assay [1] of 112 nM.

Take `CN1Cc2cccc(C(N)=O)c2C1=O`: the Ki in assay [1] was found to be 123 nM.

`CN(C)c1ccc(N2Cc3cccc(C(N)=O)c3C2=O)cc1` had an EC50 in assay [2] of 372 nM. In addition, the affinity in assay [1], expressed as Ki, was 70 nM.
